Reference: patent US9464105B2, “Hydroxylated KRN7000 analogue and use thereof” (RIKEN, priority 2012, dated 2016)

What follows are compounds tested on IFN-γ and IL-4 in plasma (assay: Cytokine content in mouse plasma after intravenous administration of glycolipid (Cytometric Bead Array)). Settings: tail vein, 100 μg/kg body weight, plasma up to 60 hr (FIG. 1, FIG. 2).
Type: in vivo, C57BL/6 mice
Description: Solutions of each of KRN7000, RCAI-147, RCAI-151, and RCAI-160 in dimethyl sulfoxide (DMSO) at a concentration of 1 mg/mL were prepared. The above-mentioned DMSO solutions were diluted 5-fold with 0.5% Tween 20 (Bio-Rad)-containing phosphate buffer (Invitrogen) and further diluted 20-fold with phosphate buffer, such that the dose became 100 μg/kg body weight when 200 μL was administered per mouse from the tail vein.
To three C57BL/6 mice per group was injected each prepared solution (200 μL) of RCAI-147, RCAI-151 and RCAI-160 into the tail vein (administration of about 2 μg per mouse). As a control substance, KRN7000 was used, and a solution (200 μL) of KRN7000 prepared in the same manner such that the dose became 100 μg/kg body weight was injected into the tail vein. The blood (80 μL) immediately before administration, and after lapse of 1, 3, 6, 12, 24, 32, 48 and 60 hr was collected from orbital plexus venosus, and plasma was prepared.
The content of each cytokine in plasma immediately before and after administration of each glycolipid was measured by Cytometric Bead Array (CBA) system (BD Biosciences) which is one of the ELISA methods.
The measurement results (mean) and standard deviation thereof (STDEV) of the content of IFN-γ in plasma immediately before administration, and after lapse of 3, 6, 12, 24, 32, 48 and 60 hr are shown in FIG. 1. The measurement results (mean) and standard deviation thereof (STDEV) of the content of IL-4 in plasma immediately before administration, and after lapse of 1, 3, 6, 12 and 24 hr from the administration are shown in FIG. 2.
With `CCCCCCCCCCCCCCCCCCCCCCC[C@@H](O)[C@@H](O)C(=O)N[C@@H](COC1OC(CO)C(O)C(O)C1O)[C@H](O)[C@H](O)[C@@H](O)[C@@H](O)CCCCCCCCCCCC` (stereo partly drawn) [RCAI-147, (2S,3S,4S,5S,6S)-2-[(2′R,3′R)-2′,3′-(dihydroxy)hexacosanoylamino]-3,4,5,6-(tetrahydroxy)octadecyl α-D-galactopyranoside] the “cytokine production induction activity (IFN-γ / IL-4 bias) as compared to KRN7000” value was “cytokine production induction activity biased to the IL-4 as compared to KRN7000”.
For `CCCCCCCCCCCCCCCCCCCCCCC[C@@H](O)[C@@H](O)C(=O)N[C@@H](COC1OC(CO)C(O)C(O)C1O)[C@H](O)[C@H](O)CCCCCCCCCCCCCC` (stereo partly drawn) [RCAI-151, (2S,3S,4R)-3,4-dihydroxy-2-[(2′R,3′R)-2′,3′-dihydroxyhexacosanoylamino]octadecyl α-D-galactopyranoside], the “cytokine production induction activity (IFN-γ / IL-4 bias) as compared to KRN7000” value was “cytokine production induction activity biased to the IL-4 as compared to KRN7000”.
With `CCCCCCCCCCCCCCCCCCCCCC[C@@H](O)[C@@H](O)[C@@H](O)C(=O)N[C@@H](CO[C@H]1O[C@H](CO)[C@H](O)[C@H](O)[C@H]1O)[C@H](O)[C@H](O)CCCCCCCCCCCCCC` [RCAI-160, (2S,3S,4R)-2-[(2′R,3′R,4′R)-2′,3′,4′-trihydroxyhexacosanoyl]amino-3,4-di-hydroxyoctadecyl α-D-galactopyranoside] the “cytokine production induction activity (IFN-γ / IL-4 bias) as compared to KRN7000” value was “cytokine production induction activity biased to the IL-4 as compared to KRN7000”.
